Assay results reported in patent US20240116856A1 (Young BioPharma, LLC, priority 2020, published 2024).
Values joined by “and” are separate entries in the source; they are usually repeats but may differ in a detail not shown here. Identical values can stand only once. “Also recorded” adds a separate entry of the source. Like-named read-outs stand apart in the source and are kept apart here. One block for each compound: values may come before it.

How the values were obtained:
Mouse plasma stability = conditions: C57BL6 mouse plasma; 2 μM (YB-2), 5 μM (controls)
TRPV1 [1] = target: TRPV1 (Rattus norvegicus, UniProt O35433); conditions: read-out: EC50 in Ca2+ influx assay, cited from earlier work
[2] = literature; cited from earlier work
MDA-MB-231 cell invasion = experiment: Cancer cell invasion assay, MDA-MB-231; assay type: cell-based, human; conditions: for inhibition of MDA-MB-231 cell invasion: 24 h
Protocol: (§1) A cancer cell invasion assay was developed based on literature protocols (Methods 2005, 37, 208; EMBO J 2002, 21, 6289; Cellular Signalling 2012, 24, 1276.). Membrane matrix gel (Cat #A1413201, ThermoFisher) was diluted in ice-cold, serum-free RPMI 1640 Medium (Cat #31800022, ThermoFisher) at a concentration of 0.5-0.6 mg/mL. Then it was added to the upper compartment (100 μL per cup) of millicell inserts (Cat #PI8P01250, ThermoFisher) placed in a 24-well plate (Part no. 229123, Celltreat). The plate was incubated at 37° C. for 2 h to allow the liquid gel to solidify. RPMI 1640 Medium supplemented with 10% FBS (300 μL) was added to the well of the plate (lower compartment) as attractant, then DMSO or compounds were added. Human cancer cells (1×10^5 cells in 200 μL of RPMI 1640 Medium) were added to the upper compartment of the insert, then DMSO or compounds were added. After the plate was incubated at 37° C. for 24 h, the cells were fixed on the lower side of the insert membrane with 4% formaldehyde and stained with 1% crystal violet (Part no. IS12146, Innovating Science). The invaded cells on the lower side of the filter were counted under an inverted microscope equipped with either a 4× or a 10× objective (FIG. 11). The cell numbers from 5 random views were averaged and plotted as percentage against the DMSO control (FIG. 12A).

[3] = system: Src protein activation in OVCAR-8 cells; experiment: Cancer cell immunocytochemistry assay, Phospho-Src (Y416), OVCAR-8; assay type: cell-based, human
Protocol: (§2) Human cancer cells (15,000 cells/well) in 96 well half area microplate (Cat #3882, Corning) were incubated overnight at 37° C., then compounds or DMSO control were added to the cell culture and incubated at 37° C. for 1-6 h. The cells were sequentially fixed with 4% formalin, permeabilized with 0.5% Triton X-100, blocked with 5% BSA in PBS, incubated with Human Phospho-Src (Y416) Antibody (Cat #MAB2685, R&D Systems) at rt for 2 h, incubated with the secondary antibody Goat Ant-Rabbit IgG H&L (Alexa Fluor 488) (Cat #ab150077, abeam) for 45 min, and incubated with DAPI (Cat #D9542, Sigma-Aldrich) for 5 min. Finally, the cells were washed and covered with PBS. The cell images were visualized on an inverted fluorescence microscope (Leica DMIL Fluorescent Inverted Microscope with Digital Camera, Leica Microsystems). Pictures were taken [FIGS. 14A-C. Green: Human Phospho-Src (Y416), the activated form of the Src protein; Blue: DAPI (stain nucleus of cell)]. The fluorescence intensity values from 5 random cells were averaged, subtracted by the background value (area between cells) and the blank value [the blank control without the Human Phospho-Src (Y416) Antibody], then plotted as percentage against the DMSO control to indicate the effects of compound treatment on the cellular Src kinase phosphorylation levels in the cancer cells (FIGS. 15A-D).

NCI-H460 = experiment: Human cancer cell growth inhibition assay (ATP assay), NCI-H460; assay type: cell-based; conditions: for IC50: Homo sapiens, NCI-H460, 96 h, 4 days, Means±SEM from three independent experiments, read-out: NCl-H460, IC50
human TRPV3 = target: T1, human TRPV3 (Homo sapiens, UniProt Q8NET8); experiment: In vitro Ca2+ flux counter-screen in human TRPV3 overexpressing cells; assay type: cell-based; conditions: counter-screen; read-out: TRPV3 EC50
T1 construct: expressed in transfected cells; host or cells: overexpressing cells
T1 sequence (Q8NET8 1-790): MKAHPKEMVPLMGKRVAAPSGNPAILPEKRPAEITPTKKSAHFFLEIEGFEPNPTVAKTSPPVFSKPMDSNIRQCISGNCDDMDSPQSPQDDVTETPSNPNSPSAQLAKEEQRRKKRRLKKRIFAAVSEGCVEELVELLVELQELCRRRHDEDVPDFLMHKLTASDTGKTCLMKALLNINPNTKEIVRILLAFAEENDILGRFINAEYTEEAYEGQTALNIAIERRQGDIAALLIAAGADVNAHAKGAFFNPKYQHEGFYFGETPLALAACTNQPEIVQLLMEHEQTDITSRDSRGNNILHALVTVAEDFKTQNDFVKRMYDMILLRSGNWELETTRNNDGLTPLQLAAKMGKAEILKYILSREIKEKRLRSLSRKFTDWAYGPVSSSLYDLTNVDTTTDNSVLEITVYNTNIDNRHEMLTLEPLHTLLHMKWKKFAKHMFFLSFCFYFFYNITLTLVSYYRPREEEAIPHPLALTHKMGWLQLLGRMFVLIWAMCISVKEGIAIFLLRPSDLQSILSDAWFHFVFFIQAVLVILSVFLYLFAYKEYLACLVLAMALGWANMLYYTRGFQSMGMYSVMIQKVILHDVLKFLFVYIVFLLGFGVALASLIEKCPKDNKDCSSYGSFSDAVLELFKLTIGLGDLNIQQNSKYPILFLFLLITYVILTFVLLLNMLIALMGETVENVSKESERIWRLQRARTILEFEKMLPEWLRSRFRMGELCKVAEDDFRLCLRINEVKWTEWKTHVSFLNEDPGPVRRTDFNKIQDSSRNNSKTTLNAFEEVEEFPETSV

OVCAR-8 = experiment: Human cancer cell growth inhibition assay (ATP assay), OVCAR-8; assay type: cell-based; conditions: for IC50: Homo sapiens, OVCAR-8, 96 h, 4 days, Means±SEM from three independent experiments, read-out: OVCAR-8, IC50
human TRPA1 = target: T2, human TRPA1 (Homo sapiens, UniProt O75762); experiment: In vitro Ca2+ flux counter-screen in human TRPA1 overexpressing cells; assay type: cell-based; conditions: counter-screen; read-out: TRPA1 EC50
T2 construct: expressed in transfected cells; host or cells: overexpressing cells

NCI-H460 cell invasion = experiment: Cancer cell invasion assay, NCI-H460; assay type: cell-based, human; conditions: for inhibition of NCI-H460 cell invasion: 24 h
Protocol: as §1

[4] = system: Src protein activation in MDA-MB-231 cells; experiment: Cancer cell immunocytochemistry assay, Phospho-Src (Y416), MDA-MB-231; assay type: cell-based, human
Protocol: as §2

OVCAR-8 ovarian tumor = experiment: OVCAR-8 intraperitoneal xenograft in athymic nude mice; assay type: in vivo
Protocol: OVCAR-8 cells expressing red fluorescent protein were xenografted intraperitoneally in athymic nude mice to form tumors (Mol Cancer Ther 2020, 19, 89). After 4 weeks, mice were dosed with YB-1 or vehicle control (10% N-Methylpyrrolidone-72% PEG400—18% water) for 2 weeks (dosage: 5 mg/kg; ip treatment twice per week). As shown in FIGS. 16A-B, compared to vehicle group, animals treated with YB-1 for 2 weeks had 40% less tumor burden based on average radiant efficiency measured with IVIS and reduced approximately half of the body weight loss (7% average body weight loss for YB-1 treatment group vs. 13% average body weight loss for vehicle group).

MDA-MB-231 = experiment: Human cancer cell growth inhibition assay (ATP assay), MDA-MB-231; assay type: cell-based; conditions: for IC50: Homo sapiens, MDA-MB-231, 96 h, 4 days, Means±SEM from three independent experiments, read-out: MDA-MB-231, IC50
[5] = system: Src protein activation in NCI-H460 cells; experiment: Cancer cell immunocytochemistry assay, Phospho-Src (Y416), NCI-H460; assay type: cell-based, human
Protocol: as §2

OVCAR-8 cell invasion = experiment: Cancer cell invasion assay, OVCAR-8; assay type: cell-based, human
Protocol: as §1

[6] = intraplantar
TRPV1 [7] = target: T3, TRPV1 (Mus musculus, UniProt Q704Y3); experiment: Ca2+ imaging of primary mouse dorsal root ganglion (DRG) neurons, TRPV1 desensitization; assay type: cell-based; conditions: then capsaicin 0.5 μM
T3 construct: DRG was isolated from male and female mice expressing GCaMP6f in neurons; endogenous in cells; host or cells: dissociated primary DRG neurons from GCaMP6f-expressing mice

[8] = both, mouse, in vivo, 1 min
human TRPV1 = target: T4, human TRPV1 (Homo sapiens, UniProt Q8NER1); experiment: In vitro Ca2+ flux assay in human TRPV1 transfected HEK 293 cells; assay type: cell-based; conditions: Means±SEM from three independent experiments; read-out: TRPV1 EC50
T4 construct: DYK (FLAG) tag from vector pcDNA3.1+/C-(K)DYK (C); host or cells: FreeStyle 293-F cells (HEK 293), transient transfection

[9] = YB-1 15 μM, capsaicin 50 μM, 1-6 h
[10] = 5 mg/kg ip twice per week for 2 weeks
[11] = first treatment capsaicin 0.5 μM, YB-11 0.5 μM or YB-16 1.0 μM, paired t-test

T2 sequence (O75762 whole entry): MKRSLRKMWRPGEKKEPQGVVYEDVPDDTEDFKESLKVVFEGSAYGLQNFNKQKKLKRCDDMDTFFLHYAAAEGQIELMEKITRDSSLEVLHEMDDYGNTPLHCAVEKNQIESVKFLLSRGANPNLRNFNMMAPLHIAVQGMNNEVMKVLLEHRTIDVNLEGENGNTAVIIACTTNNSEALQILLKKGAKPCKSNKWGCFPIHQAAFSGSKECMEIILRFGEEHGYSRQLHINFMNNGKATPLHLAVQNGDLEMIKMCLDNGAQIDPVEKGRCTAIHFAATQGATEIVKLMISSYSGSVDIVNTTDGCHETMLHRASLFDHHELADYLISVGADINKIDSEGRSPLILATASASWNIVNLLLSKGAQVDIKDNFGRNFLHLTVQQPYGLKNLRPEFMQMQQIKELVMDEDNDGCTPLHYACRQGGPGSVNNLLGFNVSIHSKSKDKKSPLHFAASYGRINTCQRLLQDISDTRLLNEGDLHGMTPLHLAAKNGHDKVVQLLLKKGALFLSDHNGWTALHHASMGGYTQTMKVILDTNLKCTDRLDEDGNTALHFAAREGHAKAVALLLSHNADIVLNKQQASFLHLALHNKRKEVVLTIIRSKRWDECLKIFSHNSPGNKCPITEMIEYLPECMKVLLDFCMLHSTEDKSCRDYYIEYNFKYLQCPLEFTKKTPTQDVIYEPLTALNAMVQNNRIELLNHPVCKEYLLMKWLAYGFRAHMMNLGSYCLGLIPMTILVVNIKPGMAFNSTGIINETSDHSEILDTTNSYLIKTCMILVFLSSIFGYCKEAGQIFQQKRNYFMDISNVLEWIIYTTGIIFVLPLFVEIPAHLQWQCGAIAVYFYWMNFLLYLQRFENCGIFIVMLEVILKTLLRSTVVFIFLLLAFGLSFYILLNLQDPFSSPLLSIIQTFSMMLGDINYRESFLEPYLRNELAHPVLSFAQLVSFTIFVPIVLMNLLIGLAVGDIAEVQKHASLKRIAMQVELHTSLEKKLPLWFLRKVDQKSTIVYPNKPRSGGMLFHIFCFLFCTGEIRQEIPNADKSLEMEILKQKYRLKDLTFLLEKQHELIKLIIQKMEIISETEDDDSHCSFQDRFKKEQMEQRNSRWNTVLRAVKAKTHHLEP
T3 sequence (Q704Y3 whole entry): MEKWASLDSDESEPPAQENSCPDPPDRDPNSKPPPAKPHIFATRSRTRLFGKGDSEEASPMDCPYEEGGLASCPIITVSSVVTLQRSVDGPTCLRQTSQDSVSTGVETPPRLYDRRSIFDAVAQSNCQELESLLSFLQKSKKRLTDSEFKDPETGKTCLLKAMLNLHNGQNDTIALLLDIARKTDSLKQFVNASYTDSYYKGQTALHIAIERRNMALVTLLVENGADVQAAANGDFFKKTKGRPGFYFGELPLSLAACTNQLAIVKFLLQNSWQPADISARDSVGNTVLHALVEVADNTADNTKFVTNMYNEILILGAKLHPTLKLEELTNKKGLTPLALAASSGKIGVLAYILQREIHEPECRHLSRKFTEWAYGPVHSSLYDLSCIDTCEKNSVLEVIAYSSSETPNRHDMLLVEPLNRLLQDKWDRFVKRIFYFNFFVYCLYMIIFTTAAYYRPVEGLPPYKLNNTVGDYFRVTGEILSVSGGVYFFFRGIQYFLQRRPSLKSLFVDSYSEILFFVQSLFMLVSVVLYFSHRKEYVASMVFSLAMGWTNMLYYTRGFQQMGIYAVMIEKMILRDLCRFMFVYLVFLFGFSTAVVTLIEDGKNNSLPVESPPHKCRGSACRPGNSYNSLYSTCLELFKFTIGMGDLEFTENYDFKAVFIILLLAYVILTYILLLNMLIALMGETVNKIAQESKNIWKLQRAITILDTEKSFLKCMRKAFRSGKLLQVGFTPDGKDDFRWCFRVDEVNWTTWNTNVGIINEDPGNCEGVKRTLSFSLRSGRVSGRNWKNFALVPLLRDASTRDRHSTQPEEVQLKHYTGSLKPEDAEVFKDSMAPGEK
T4 sequence (Q8NER1 whole entry): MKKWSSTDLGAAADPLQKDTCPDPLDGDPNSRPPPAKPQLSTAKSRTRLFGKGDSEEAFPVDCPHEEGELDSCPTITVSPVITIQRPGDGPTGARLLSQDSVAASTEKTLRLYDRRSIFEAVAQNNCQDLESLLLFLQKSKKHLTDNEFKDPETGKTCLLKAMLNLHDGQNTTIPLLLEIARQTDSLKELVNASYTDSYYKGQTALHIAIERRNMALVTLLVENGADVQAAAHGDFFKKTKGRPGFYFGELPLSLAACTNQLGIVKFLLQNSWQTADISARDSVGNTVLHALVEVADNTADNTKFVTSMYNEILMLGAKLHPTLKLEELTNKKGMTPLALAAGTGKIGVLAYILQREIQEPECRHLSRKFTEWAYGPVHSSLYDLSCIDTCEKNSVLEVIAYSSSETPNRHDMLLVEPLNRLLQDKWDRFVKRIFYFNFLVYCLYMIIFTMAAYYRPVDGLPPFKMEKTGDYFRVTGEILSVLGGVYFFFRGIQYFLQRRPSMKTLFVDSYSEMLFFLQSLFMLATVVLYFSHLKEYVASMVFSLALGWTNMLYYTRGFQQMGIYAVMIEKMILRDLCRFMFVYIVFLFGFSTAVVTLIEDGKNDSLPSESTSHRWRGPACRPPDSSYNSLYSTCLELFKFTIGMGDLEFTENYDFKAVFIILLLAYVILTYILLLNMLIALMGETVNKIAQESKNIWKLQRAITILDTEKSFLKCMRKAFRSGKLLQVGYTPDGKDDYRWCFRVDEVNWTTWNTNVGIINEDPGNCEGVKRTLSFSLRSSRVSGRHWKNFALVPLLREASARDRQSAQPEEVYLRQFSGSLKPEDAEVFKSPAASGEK
TRPV1 (Rattus norvegicus, UniProt O35433), sequence (O35433 whole entry): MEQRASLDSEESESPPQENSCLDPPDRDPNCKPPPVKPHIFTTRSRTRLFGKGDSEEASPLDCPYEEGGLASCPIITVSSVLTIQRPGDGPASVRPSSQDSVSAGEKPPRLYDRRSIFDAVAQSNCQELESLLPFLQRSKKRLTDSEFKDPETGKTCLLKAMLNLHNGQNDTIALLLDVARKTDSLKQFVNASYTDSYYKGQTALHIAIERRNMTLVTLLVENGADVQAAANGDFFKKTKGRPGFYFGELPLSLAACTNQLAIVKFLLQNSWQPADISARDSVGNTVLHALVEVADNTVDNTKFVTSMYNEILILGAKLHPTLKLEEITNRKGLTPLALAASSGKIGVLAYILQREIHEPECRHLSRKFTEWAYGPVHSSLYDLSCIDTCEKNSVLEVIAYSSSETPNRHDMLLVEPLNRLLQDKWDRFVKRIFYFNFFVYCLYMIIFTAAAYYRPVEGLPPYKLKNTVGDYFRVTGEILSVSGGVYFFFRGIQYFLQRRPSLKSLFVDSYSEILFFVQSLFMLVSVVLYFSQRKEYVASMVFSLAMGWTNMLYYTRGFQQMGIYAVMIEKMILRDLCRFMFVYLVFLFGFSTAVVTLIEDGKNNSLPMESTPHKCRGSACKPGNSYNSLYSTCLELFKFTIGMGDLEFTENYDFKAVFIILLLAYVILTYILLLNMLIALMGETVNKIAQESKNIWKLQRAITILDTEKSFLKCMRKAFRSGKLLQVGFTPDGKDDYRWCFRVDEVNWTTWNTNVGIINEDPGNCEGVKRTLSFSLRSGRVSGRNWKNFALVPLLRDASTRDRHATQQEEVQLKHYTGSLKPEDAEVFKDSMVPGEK

% Remaining at T120 (Mouse plasma stability): 0.2%
T1/2 (Mouse plasma stability): 12 min
SMILES: CC[C@H](C)C(=O)O[C@H]1C[C@@H](C)C=C2C=C[C@H](C)[C@H](CC[C@@H]3C[C@@H](O)CC(=O)O3)[C@H]21 [Lovastatin]

SMILES: CCCCCCCCC(=O)NCc1ccc(N)c(OC)c1 [N-[(4-amino-3-methoxyphenyl)methyl]-Nonanamide]
EC50 (TRPV1 [1]; as reported in literature): > 10 µM

% Remaining at T120 (Mouse plasma stability): 20%
T1/2 (Mouse plasma stability): 55 min
SMILES: CC(C)[N+](C)(CCOC(=O)C1c2ccccc2Oc2ccccc21)C(C)C [Propantheline]

SMILES: C=C(C)[C@]12C[C@@H](C)[C@@]34O[C@](Cc5ccccc5)(O[C@@H]1[C@@H]3C=C(COC(=O)Cc1ccc(O)c(OC)c1)C[C@]1(O)C(=O)C(C)=C[C@@H]41)O2 [Resiniferatoxin (RTX), Resiniferatoxin]
solubility in water [2]: insoluble in water

IC50 (NCI-H460): 11 µM
EC50 (human TRPV3): > 10 µM
IC50 (OVCAR-8): 38 µM
EC50 (human TRPA1): > 10 µM
IC50 (MDA-MB-231): 38 µM
SMILES: COc1cc(CNC(=O)CCCC/C=C/C(C)C)ccc1NC(=O)CCCC/C=C/C(C)C [YB-1]
inhibition of MDA-MB-231 cell invasion (MDA-MB-231 cell invasion): dose-dependently inhibited
potency in inhibiting cell invasion compared to capsaicin (MDA-MB-231 cell invasion; MDA-MB-231): about 4 fold
potency in inhibiting Src protein activation compared to capsaicin [3]: at least 3 fold
cellular Src kinase phosphorylation levels [3, 9]: time-dependently reduced the cellular Src kinase phosphorylation levels
potency in growth inhibition compared to capsaicin (NCI-H460; NCI-H460 cell line): 18 fold
potency in growth inhibition compared to capsaicin (OVCAR-8; OVACR-8 cell line): 6 fold
inhibition of NCI-H460 cell invasion (NCI-H460 cell invasion): dose-dependently inhibited
potency in inhibiting cell invasion compared to capsaicin (NCI-H460 cell invasion; NCI-H460): ~10 fold
potency in inhibiting Src protein activation compared to capsaicin [4]: at least 3 fold
cellular Src kinase phosphorylation levels [4, 9]: time-dependently reduced the cellular Src kinase phosphorylation levels
average body weight loss (OVCAR-8 ovarian tumor; [10]): 7%
less tumor burden compared to vehicle group (average radiant efficiency, IVIS) (OVCAR-8 ovarian tumor; [10]): 40%
tumor burden in vivo (OVCAR-8 ovarian tumor; FIG. 16): reduces tumor burden in vivo
potency in growth inhibition compared to capsaicin (MDA-MB-231; MDA-MB-231 cell line): 10 fold
potency in inhibiting Src protein activation compared to capsaicin [5]: at least 3 fold
cellular Src kinase phosphorylation levels [5, 9]: time-dependently reduced the cellular Src kinase phosphorylation levels
inhibition of OVCAR-8 cell invasion (OVCAR-8 cell invasion; 24 h): dose-dependently inhibited
potency in inhibiting cell invasion compared to capsaicin (OVCAR-8 cell invasion; OVCAR-8): ~3 fold

IC50 (NCI-H460): 65 ± 15 µM
EC50 (human TRPV3): > 10 µM
IC50 (OVCAR-8): 34 ± 12 µM
EC50 (human TRPA1): > 10 µM
IC50 (MDA-MB-231): 75 ± 20 µM
SMILES: COc1cc(CNC(=O)CCCC/C=C/C(C)C)ccc1NC(C)=O [YB-9]
inhibition of MDA-MB-231 cell invasion (MDA-MB-231 cell invasion): dose-dependently inhibited
inhibition of NCI-H460 cell invasion (NCI-H460 cell invasion): dose-dependently inhibited the NCI-H460 cell invasion from 15 μM to 60 μM
cellular Src kinase phosphorylation levels ([4]; at about 40% of IC50 concentration from cell growth inhibition assay, 4 h): significantly reduced the cellular Src kinase phosphorylation levels

SMILES: COc1cc(CC(=O)N/C=C/c2ccc(C(F)(F)F)cc2)ccc1O [YB-11]
inhibition of MDA-MB-231 cell invasion (MDA-MB-231 cell invasion): dose-dependently inhibited
animal death and sedation in formalin test [6]: No mice treated with YB-16, YB-11 or YB-2 died or experienced sedative reaction
reduction of formalin first phase behavior ([6]; 10 g, 2 hr prior to formalin): 36%
IC50 (NCI-H460): 87 ± 10 µM
TRPV1-sensitive neurons showing desensitization (TRPV1 [7]; first treatment 0.5 μM): 67%
area under the curve of the Ca2+ signal of the second (capsaicin) application (TRPV1 [7]; [11]): statistically significant reduction; also recorded: significantly reduced
max Ca2+ signal of the second (capsaicin) application (TRPV1 [7]; [11]): statistically significant reduction; also recorded: significantly reduced
EC50 (human TRPV3): > 10 µM
IC50 (OVCAR-8): 65 µM
EC50 (human TRPA1): > 10 µM
MPP [8]: 0.101 mg/mL
EC50 (human TRPV1): < 0.1 µM and 0.012 to 0.048 µM and 0.012 µM
IC50 (MDA-MB-231): 129 ± 21 µM

SMILES: COc1cc(CN(C)C(=O)CCCCC=CC(C)C)ccc1O [capsaicin analog 3d]
EC50 (TRPV1 [1]): > 100 µM
